From patent publication US20190192524A1, “Modulators of Caspase-6” (The University of British Columbia, priority 2014, published 2019)

Tests used:
recombinant caspase-6 = target: T1, recombinant caspase-6 (Homo sapiens, UniProt P55212); assay: Simultaneous caspase-6 cleavage and 586 fragment detection by FRET; type: biochemical; conditions: cell-free; Htt substrate from COS-7 cell lysates
T1 construct: purchased BioMol
T1 sequence (P55212 24-293): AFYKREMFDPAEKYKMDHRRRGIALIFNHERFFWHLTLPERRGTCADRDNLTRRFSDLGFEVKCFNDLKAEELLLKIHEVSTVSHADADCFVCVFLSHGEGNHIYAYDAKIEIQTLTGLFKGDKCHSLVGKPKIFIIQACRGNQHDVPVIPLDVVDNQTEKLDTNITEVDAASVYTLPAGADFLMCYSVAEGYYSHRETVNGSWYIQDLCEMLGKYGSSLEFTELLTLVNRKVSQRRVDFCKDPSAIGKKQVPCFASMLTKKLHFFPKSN
Procedure: Different concentrations of the PG3 compounds were incubated with the Htt protein and the caspase-6 enzyme. The Htt substrate from COS-7 cell lysates is cleaved by caspase 6 and fragments are detected by FRET between the N-terminal BKP1 antibody and the neo-epitope antibody against amino acid 586.
COS-7 cells were grown in DMEM supplemented with 10% fetal bovine serum, 1%/penicillin/streptomycin and 0.5% glutamine. Transfections were performed using the Fugene reagent (Roche) according to manufacturer's instructions. The transfected DNA encodes amino acids 1-1212 of the human Htt protein with 15 glutamines and a C-terminal HA-tag, under control of a CMV promoter (Warby, 2008, supra; Wellington et al., 2000. J Biol Chem 275:19831-19838). The construct that was transfected is 4c Htt, which contains D→A mutations at amino acids 513, 530, 552 and […] (SEQ ID NO: 1). 24 h after transfection, cells were harvested by trypsinization, pellets washed in PBS and lysed by suspension in lysis buffer (50 mM Tris pH 8, 150 mM NaCl, 1% Igepal, supplemented with 1× complete protease inhibitor (Roche) and 4 mM Pefabloc). Lysates were incubated on ice for 10 min, vortexed and sonicated for 4 sec before centrifugation at 21,000×g for 10 min at 4° C. Supernatants were saved, protein concentration determined with the Biorad DC assay and stored at −80° C. until use.
Dilution series of cell lysates and caspase-6 (2.2× final concentration) were prepared in FRET cleavage buffer (10 mM HEPES pH 7.4, 100 mM NaCl, 0.05% gelatin, 0.1% CHAPS, 2 mM DTT) since this buffer was previously found to best stabilize caspase-6 in dilute form at room temperature. For negative controls, 22 μM zVAD-fmk was added to the caspase-6 dilutions.
Tb-labelled BKP1 antibody and D2-labelled 586 antibody (Cisbio) were diluted to 1 ng/μl (Tb) and 10 ng/μl (D2) in FRET cleavage buffer and pre-mixed at a 1:1 ratio.
In each well of a white 384 well plate (Nunc), 10 μl cell lysate were mixed with 10 μl caspase and 2 μl antibody mix, the plate was centrifuged briefly and incubated in the Victor 3 multilabel plate reader (Perkin Elmer) at 37° C. FRET was measured every 30 min for up to 2 h with the following settings: Excitation: 340 nm, Emission 1: 615 nm, Emission 2: 665 nm, 50 μs delay, 200 μs window time, 2000 μs cycle time. To obtain the final FRET signal, the ratio between Emission 2/Emission 1 (D2/Tb signal) was calculated. After 2 h at 37° C., the assay plate was sealed and after further incubation at 4° C. for 20 h, the FRET signal was read again.

[1] = target: T2, human caspase 6 lacking the pro-domain (Homo sapiens, UniProt P55212); assay: Lamin A cleavage in HEK 293 cells overexpressing caspase-6 (Mesoscale ELISA); type: cell-based; set-up: The transfected DNA encodes amino acids 24-293 of the human caspase 6 enzyme with a C-terminal DDK tag; DDK-tag (C); expressed in transfected cells; host or cells: HEK 293; conditions: 24 hr incubation; cleaved lamin A quantified; read-out: HEK intracellular IC50
T2 sequence (P55212 with tags, fused parts or gaps): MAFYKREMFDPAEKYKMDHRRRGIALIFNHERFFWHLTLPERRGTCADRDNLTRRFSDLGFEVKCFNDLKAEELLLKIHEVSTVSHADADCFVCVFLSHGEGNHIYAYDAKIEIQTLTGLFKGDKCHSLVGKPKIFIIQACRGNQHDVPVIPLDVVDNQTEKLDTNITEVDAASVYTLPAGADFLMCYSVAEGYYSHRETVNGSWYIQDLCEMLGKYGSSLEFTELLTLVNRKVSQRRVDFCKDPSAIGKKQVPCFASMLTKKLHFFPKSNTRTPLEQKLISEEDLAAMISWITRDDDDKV
Procedure: HEK 293 cells were grown in DMEM supplemented with 10% fetal bovine serum, 1%/penicillin/streptomycin and 0.5% glutamine. Transfections were performed using the Fugene reagent (Roche) according to manufacturer's instructions. The transfected DNA encodes amino acids 24-293 of the human caspase 6 enzyme with a C-terminal DDK tag under the control of a CMV promoter (vector pCMVSport6) (SEQ ID NO: 2). The transfected HEK 293 were used to measure the intracellular activity of caspase-6 as evidenced by cleavage of the lamin substrate (described below).
The quantitative assessment of intracellular lamin cleavage in caspase-6 transfected HEK 293 cells was done as described previously (Ehrnhoefer et al. PLoS One, 2011. 6(11):e27680) Briefly, HEK 293 cell lysates were adjusted to 1 μg protein/μl in lysis buffer, diluted to 0.2 μg/μl in PBS and 5 μl were added to a Multi-Array high-bind 96 well plate (Mesoscale discovery). After incubation at room temperature for 1 h, the wells were blocked by adding 150 μl 5% BSA in PBS, followed by further incubation at room temperature for 1 h. Wells were then washed 3× with 150 μl PBS+0.05% Tween, and 25 μl antibody mix was added (Cell signaling #2036 at 1:100 dilution, Mesoscale discovery goat-anti-rabbit sulfo-tag at 1:500 dilution in PBS with 1% BSA). After lh incubation at room temperature, the wells were washed 3× with 150 μl PBS+0.05% Tween, and 150 μl/well 2× reading reagent (Mesoscale discovery) was added. The plate was read on a Sector imager 6000 (Mesoscale discovery).
The PG3 analog compounds were also tested for their ability to inhibit caspase-6 within cultured cells. HEK 293 cells were transfected with human caspase 6 lacking the pro-domain and were incubated with increasing concentrations of the PG3 analogs. After a 24 hr incubation, the excess compound was washed away, the cells were lysed and the amount of cleaved lamin A protein was quantified by the Mesoscale ELISA method.

[2] = target: T2, human caspase 6 lacking the pro-domain; assay: Intracellular Htt cleavage by Western blot in co-transfected COS-7 cells; type: cell-based; set-up: DDK-tag (C); expressed in transfected cells; host or cells: COS-7; conditions: 3 uM inhibitor
Procedure: COS-7 cells were co-transfected with the 4c htt fragment and the human caspase-6 lacking the pro-domain which leads to fast autoactivation of the caspase-6 enzyme and the generation of the 586 aa Htt cleavage fragment. The co-transfected cells were exposed to either 10 uM of the PG3d compound, 3 uM of the Q-VD-Oph pan-caspase inhibitor or were left untreated. Non-transfected cells were included as a negative control and the purified 586 aa Htt fragment was included as a positive control. Cell lysates were subjected to Western blotting and the 586AA fragment generated intracellularly was detected with Htt antibody 2166 (Millipore). Caspase-6 expression and activation was assessed by Western blotting using antibody HD91 (Ehrnhoefer et al, HMG, 2014. 23(3):717-29).
COS-7 cells were co-transfected with the 4c htt fragment and the human caspase-6 lacking the pro-domain which leads to fast autoactivation of the caspase-6 enzyme and the generation of the 586 aa Htt cleavage fragment. […] Non-transfected cells were included as a negative control and the purified 586 aa Htt fragment was included as a positive control. […] The cell lysates were also assayed for the levels of active caspase 6 enzyme as shown in the lower panel of FIG. 5B.

[3] = target: T3, interaction between 1212AA Htt and caspase-6 (Homo sapiens, UniProt P55212); assay: Co-immunoprecipitation of Htt with caspase-6 antibody from COS-7 lysates; type: cell-based; conditions: 3 uM inhibitor, vs DMSO
T3 construct: DDK-tag (C); expressed in transfected cells; host or cells: COS-7
T3 sequence (P55212 with tags, fused parts or gaps): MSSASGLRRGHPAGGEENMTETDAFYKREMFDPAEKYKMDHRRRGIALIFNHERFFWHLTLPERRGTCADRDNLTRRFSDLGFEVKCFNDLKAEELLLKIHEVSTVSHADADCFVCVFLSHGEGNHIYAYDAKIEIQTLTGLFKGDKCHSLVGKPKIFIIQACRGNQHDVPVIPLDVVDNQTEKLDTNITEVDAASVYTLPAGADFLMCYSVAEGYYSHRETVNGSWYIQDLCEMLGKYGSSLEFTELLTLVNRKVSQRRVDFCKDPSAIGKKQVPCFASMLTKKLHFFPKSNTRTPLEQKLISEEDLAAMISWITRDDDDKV
Procedure: (§1) COS-7 cells were co-transfected with the 1212 amino acid HTT fragment (SEQ ID NO: 3) and the full length human caspase-6 enzyme (SEQ ID NO:4). The co-transfected cells were exposed to either 10 uM of the PG3d compound, 3 uM of the Q-VD-Oph pan-caspase inhibitor or were treated with DMSO as a control. An aliquot of the cell lysates were subjected to Western blotting to detect HTT fragments with the Htt antibody 2166 (Millipore) and the presence of caspase-6 was detected using the HD91 antibody (Ehrnhoefer et al, HMG, 2014. 23(3):717-29). The remaining cell lysates (500 ug protein) were immunoprecipitated with 5 ug of Caspase-6 antibody for 16 hrs at 4 C. The immunoprecipitated proteins were then applied to acrylamide gels and immunoblotted to detect either the HTT fragments or the presence of the active caspase 6 enzyme using the antibodies described above.
As expected, the DMSO control lysates reveal a variety of Htt fragments within the immunocomplexes, including 513AA fragment generated by caspase-3 cleavage, the full-length 1212AA Htt and the 586AA fragment generated by caspase-6 cleavage. When the cells are treated with the pan-caspase inhibitor Q-VD-OPh, the amount of Htt cleavage fragments interacting with caspase-6 is reduced and it is evident that caspase-6 is primarily interacting with the 1212 AA Htt.

[4] = target: T4, full-length human caspase-6 (Homo sapiens, UniProt P55212); assay: Western blot of Htt fragments in COS-7 cells co-transfected with Htt 1-1212AA and full-length caspase-6; type: cell-based; conditions: 3 uM inhibitor, 24 hr, vs DMSO
T4 construct: DDK-tag (C); expressed in transfected cells; host or cells: COS-7
T4 sequence (P55212 with tags, fused parts or gaps): T3 sequence (P55212 with tags, fused parts or gaps)
Procedure: as §1
Cos-7 cells were co-transfected with Htt 1-1212AA (SEQ ID NO:3) and full-length human caspase-6 (SEQ ID NO:6), and exposed to either the pan-caspase inhibitor Q-VD-OPh, the PG3d compound or DMSO as a negative control. As shown in the upper panel of FIG. 9A, control cells that received DMSO alone (lanes labelled n.t.) show the presence of the Htt 1212AA protein and the Htt proteolytic cleavage fragments including the 586, 552 and 513 amino acid fragments. […]

SMILES: CCCCc1c(O)nc(C#Cc2ccccc2)oc1=O [PG-3, 5-Butyl-4-hydroxy-2-(phenylethynyl)-6H-1,3-oxazin-6-one]
- melting point: 157 to 159 °C
- IC50 (recombinant caspase-6): 13.8 µM

SMILES: Cc1c(O)nc(C#Cc2ccccc2)oc1=O [PG-3a, 4-Hydroxy-5-methyl-2-(phenylethynyl)-6H-1,3-oxazin-6-one]
- melting point: 184 to 186 °C
- IC50 [1]: > 15 µM
- IC50 (recombinant caspase-6): 8.2 µM

SMILES: CCc1c(O)nc(C#Cc2ccccc2)oc1=O [PG-3b, 5-Ethyl-4-hydroxy-2-(phenylethynyl)-6H-1,3-oxazin-6-one]
- melting point: 177 to 178 °C
- IC50 [1]: 12.1 µM
- IC50 (recombinant caspase-6): 8 µM

SMILES: CC(C)c1c(O)nc(C#Cc2ccccc2)oc1=O [PG-3c, 4-Hydroxy-5-isopropyl-2-(phenylethynyl)-6H-1,3-oxazin-6-one]
- melting point: 202 to 203 °C
- IC50 [1]: > 15 µM
- IC50 (recombinant caspase-6): 12.2 µM

SMILES: O=c1oc(C#Cc2ccccc2)nc(O)c1-c1ccccc1 [PG-3e, 4-Hydroxy-5-phenyl-2-(phenylethynyl)-6H-1,3-oxazin-6-one]
- melting point: 187 to 189 °C
- IC50 [1]: 2.5 µM
- IC50 (recombinant caspase-6): 3.9 µM

SMILES: Cc1c(O)nc(C#Cc2ccccc2Cl)oc1=O [PG-3f, 2-[(2-Chlorophenyl)ethynyl]-4-hydroxy-5-methyl-6H-1,3-oxazin-6-one]
- melting point: 175 to 178 °C
- IC50 (recombinant caspase-6): 57.3 µM

SMILES: O=c1oc(C#Cc2ccc(Cl)cc2)nc(O)c1-c1ccccc1 [PG-3g, 2-[(4-Chlorophenyl)ethynyl]-4-hydroxy-5-phenyl-6H-1,3-oxazin-6-one]
- melting point: 185 to 187 °C (dec.)
- IC50 [1]: 3.9 µM
- IC50 (recombinant caspase-6): 7.5 µM

SMILES: O=C(C#Cc1ccccc1)NC(=O)Cc1ccccc1 [PG-3h, 3-Phenyl-N-(phenylacetyl)prop-2-ynamide]
- IC50 [1]: 4.8 µM
- IC50 (recombinant caspase-6): 8.1 µM

SMILES: CC(C)[C@H](NC(=O)c1ccc2ccccc2n1)C(=O)N[C@@H](CC(=O)O)C(=O)COc1c(F)cccc1F [Q-VD-Oph, reference compound]
- cleavage of the Htt protein to the 586 amino acid fragment [2]: reduced cleavage
- level of active caspase-6 enzyme [2]: reduced level of active caspase-6 enzyme
- amount of Htt cleavage fragments interacting with caspase-6 [3]: reduced
- amount of Htt cleavage fragments [4]: reduction
